Data reported in patent US8115060B2, “Means and methods of controlling plant seed germination” (Applied Biotechnology Institute, Inc., priority 2008, dated 2012).

Tests used:
[1] = tested on: corn plants expressing avidin with a constitutive promoter targeted to the cell wall; test: Reversal of avidin-induced male sterility by application of biotin to corn plants; assay type: in vivo; conditions: biotin applied to plants; unpublished results
From the text: Biotin is a B vitamin and provides a safe chemical for seed treatment. In addition, biotin is inexpensive and readily available. […] When avidin was expressed in corn plants with a constitutive promoter targeted to the cell wall, male sterility occurred (14).

non-transformed seeds = test: Germination of non-transformed seeds imbibed in water with biotin; conditions: biotin in water used for imbibing
From the text: Since our T0 plants were crossed with non-transgenic maize in the greenhouse, it is expected that half of the seeds in our initial transformed plants (T1 seed) should not carry the avidin gene.

[2] = tested on: seeds from transformation events containing the avidin gene; test: Germination of T1 seeds containing the avidin gene, imbibed with and without biotin; assay type: in vivo, maize

## O=C(O)CCCC[C@@H]1SC[C@@H]2NC(=O)N[C@@H]21 [biotin]
[1]
  reversal of male sterility caused by avidin: able to reverse the effect of avidin and render the plants fertile
non-transformed seeds
  biotin concentration tolerated with no detrimental signs of any effect on germination: up to 10 μg/ml
[2]; 20 seeds from a single ear of transformed corn imbibed with biotin, after one week, best result
  number of seeds that failed to germinate: one
[2]; several experiments testing 240 seeds, compared with water
  change in number of non germinating seeds when biotin applied during imbibing: cut in half
